Experimental data published in patent US6951887B2 (The Research Foundation of State University of New York, priority 1998, dated 2005).

Legend:
[1] = test system: cancer cells in culture; assay: threshold killing concentration and dose response in cultured cells; type: cell-based; details: for threshold killing concentration: approximate center of a range extending two to threefold
Source text: First, each compound killed cancer cells in culture at or above a relatively narrow, specific concentration range, but not below. The threshold concentrations given below represent the approximate center of this range which extended roughly two to threefold. […] Below these saturation ranges, sensitive cells survived and grew. They could be removed and replated to grow, apparently indefinitely, under these conditions. […] This was a highly unusual dose/response profile. The threshold killing concentrations (ranges) varied between individual compounds. Examples of these threshold killing concentrations were as follows: bis-benzoyl lipoate (EXAMPLE 3) 60 mg/liter (60 mg/kg), monoacetyl lipoate (EXAMPLE 4) 100 mg/liter (100 mg/kg); bis-acetyl lipoate (EXAMPLE 2) 600 mg/liter (600 mg/kg).
These changes were ultimately followed by cell death if treatment was continued. However, these morphological changes were reversed, and the cells recovered, if the lipoate derivative was removed during this initial exposure. As with the dose/response profile of the preceeding paragraph, this reversible induction of morphological change followed by commitment to cell death is highly idiosyncratic. The discovery that this behavior was shown by all tested members of the class of compounds that are the object of this invention was, again, very strong evidence that these compounds are, in fact, a functionally coherent class.

[2] = test system: Hep G2; assay: killing of cultured cells, Hep G2; type: cell-based; parameters: key to cells killed by treatment: “+” indicates that the cells were killed by treatment; “−” indicates that they were not; “+/−” indicates a slow marginal response seen only in a few special cases with fibroblasts experimentally transformed by introduction of the ras oncogene; details: Hep G2; compound at two to fourfold above its threshold killing concentration
Source text: (§1) Table 1: Summarized are the responses of cells in culture to killing by example members of the family of blocked lipoate derivatives that are the object of this invention as well as one control compound (dihydroxyoctanoic acid). At right is indicated the specific cell line followed by the tissue of origin of the cell line. Across the top are listed the specific compounds tested. Each blocked lipoate derivative was used at two to fourfold above its threshold killing concentration. [These concentrations range form 0.15 mM (60 ug/ml or 60 mg/kg) to 2.5 mM (800 ug/ml or 800 mg/kg) (see EXAMPLE 11).] […] “+/−” indicates a slow marginal response seen only in a few special cases with fibroblasts experimentally transformed by introduction of the ras oncogene (EXAMPLE 10).
(§2) First, each cell type to be tested was plated at low densities in the wells of a standard 6×24 well tissue culture plate. (Multiple wells are seeded for each cell type.)
(§3) Second, the cells were allowed to grow to moderate densities. Transformed cells are in contact and non-transformed cells are contact-inhibited under these conditions.
(§4) Third, the lipoate derivatives to be tested were added to individual wells. In these experiments each compound was added at two to fourfold above the threshold killing concentration for cancer cells (EXAMPLE 11).
(§5) Fourth, cells were monitored over the next several days.

[3] = test system: A549 (Lung); assay: killing of cultured cells, A549; type: cell-based; parameters: key to cells killed by treatment: “+” indicates that the cells were killed by treatment; “−” indicates that they were not; “+/−” indicates a slow marginal response seen only in a few special cases with fibroblasts experimentally transformed by introduction of the ras oncogene; details: A549, Lung; compound at two to fourfold above its threshold killing concentration
Source text: as §1, §2, §3, §4, §5

[4] = test system: LnCap (Prostate); assay: killing of cultured cells, LnCap; type: cell-based; parameters: key: “+” indicates that the cells were killed by treatment; “−” indicates that they were not; “+/−” indicates a slow marginal response seen only in a few special cases with fibroblasts experimentally transformed by introduction of the ras oncogene; details: compound at two to fourfold above its threshold killing concentration
Source text: as §1, §2, §3, §4, §5

[5] = test system: MCF 7 (Breast); assay: killing of cultured cells, MCF 7; type: cell-based; parameters: key: “+” indicates that the cells were killed by treatment; “−” indicates that they were not; “+/−” indicates a slow marginal response seen only in a few special cases with fibroblasts experimentally transformed by introduction of the ras oncogene; details: compound at two to fourfold above its threshold killing concentration
Source text: as §1, §2, §3, §4, §5

[6] = test system: Saos 2 (Bone); assay: killing of cultured cells, Saos 2; type: cell-based; parameters: key: “+” indicates that the cells were killed by treatment; “−” indicates that they were not; “+/−” indicates a slow marginal response seen only in a few special cases with fibroblasts experimentally transformed by introduction of the ras oncogene; details: compound at two to fourfold above its threshold killing concentration
Source text: as §1, §2, §3, §4, §5

[7] = test system: RD (Embryo); assay: killing of cultured cells, RD; type: cell-based; parameters: key to cells killed by treatment: “+” indicates that the cells were killed by treatment; “−” indicates that they were not; “+/−” indicates a slow marginal response seen only in a few special cases with fibroblasts experimentally transformed by introduction of the ras oncogene; details: RD, Embryo; compound at two to fourfold above its threshold killing concentration
Source text: as §1, §2, §3, §4, §5

[8] = test system: HeLa (Cervix); assay: killing of cultured cells, HeLa; type: cell-based; parameters: key to cells killed by treatment: “+” indicates that the cells were killed by treatment; “−” indicates that they were not; “+/−” indicates a slow marginal response seen only in a few special cases with fibroblasts experimentally transformed by introduction of the ras oncogene; details: Cervix, compound at two to fourfold above its threshold killing concentration
Source text: as §1, §2, §3, §4, §5

[9] = test system: SW480 (Colon); assay: killing of cultured cells, SW480; type: cell-based; parameters: key: “+” indicates that the cells were killed by treatment; “−” indicates that they were not; “+/−” indicates a slow marginal response seen only in a few special cases with fibroblasts experimentally transformed by introduction of the ras oncogene; details: compound at two to fourfold above its threshold killing concentration
Source text: as §1, §2, §3, §4, §5

[10] = test system: B16 (Skin); assay: killing of cultured cells, B16; type: cell-based; parameters: key: “+” indicates that the cells were killed by treatment; “−” indicates that they were not; “+/−” indicates a slow marginal response seen only in a few special cases with fibroblasts experimentally transformed by introduction of the ras oncogene; details: compound at two to fourfold above its threshold killing concentration
Source text: as §1, §2, §3, §4, §5

[11] = test system: NIH 3T3 ras transformed; assay: killing of cultured cells, ras-transformed NIH 3T3 (T24); type: cell-based; parameters: key to cells killed by treatment: “+” indicates that the cells were killed by treatment; “−” indicates that they were not; “+/−” indicates a slow marginal response seen only in a few special cases with fibroblasts experimentally transformed by introduction of the ras oncogene; details: NIH 3T3 ras transformed; compound at two to fourfold above its threshold killing concentration
Source text: as §1, §2, §3, §4, §5
NIH-3T3 cells are relatively normal, noncancerous cells. However, if an activated allele of the ras oncogene is introduced into these cells they become highly malignant (cancerous) as assessed by several assays (REFERENCE).

[12] = test system: B-16 melanoma; assay: B-16 system, subcutaneous tumors; type: in vivo, mouse; details: 100 mg/kg twice daily, started at tumors ca. 3-5 mm
Source text: The B-16 melanoma strain was introduced either subcutaneously or intraperitoneally into individuals of the C57/BL syngeneic mouse strain (7). When left untreated such mice develop massive tumors in the immediate area of injection as well as secondary metastases throughout the animal—including in the liver and the lungs. These malignant growths result in the early death of the animals. Moreover, the resulting malignant growths are made up of darkly pigmented malignant melanocytes—making their assessment convenient and highly reliable. We will henceforth refer to this as the “B-16 system”.
Second, a group of animals were injected at a subcutaneous site with B-16 cells. […] As this time, one group oL animals (experimentals) began a twice-daily series of injections of the bis-acetyl lipoate derivative (100 mg/kg in 100 ul of isotonic saline) and a second set (controls) of corresponding injections of the saline solvent alone. [See EXAMPLES 2, 8 and 11 for the details of bis-acetyl lipoate derivative.]
Third, in several animals subcutaneous tumors were produced as in the preceding paragraph. After the tumors had grown to visible, palpable size, these animals received both a twice daily IP (systemic) dose of 50 mg/kg of bis-benzoyl lipoate as well as a twice daily direct injection a second dose of the same volume directly into the tumor mass.

[13] = test system: HeLa cells; assay: killing of HeLa cells with or without dichloroacetate (DCA); type: cell-based; details: compound ca. twofold above threshold killing dose plus 5 mM DCA
Procedure: HeLa cells were plated at moderate densities and allowed to attach and grow for ca. 24 hours in a series of wells in a multi-well tissue culture plate. To individual wells of the first subset (control) were added bis-acetyl lipoate, mono-acetyl lipoate or bis-benzoyl lipoate—each at ca. twofold above the threshold killing dose (EXAMPLE 11). To an equivalent (experimental) subset of wells were added these same compounds at the same dose together with the simultaneous addition of DCA to 5 mM final concentration.

[14] = nonspecific toxicity by intraperitoneal injection; details: C57/BL, mouse, in vivo, ip
Procedure: (§6) (All studies described in this section were carried out by intraperitoneal (IP) injection into C57/BL mice.)

[15] = test system: C57/BL mice; assay: nonspecific toxicity by intraperitoneal injection; details: mouse, in vivo, ip
Procedure: as §6

O=C([O-])CCCCC(O)CCO.[Na+] (centres unmarked) [dihydroxy octanoic acid, Sodium 6,8-Dihydroxyoctanoate, reference compound]
effect on cells in culture ([1]; tested up to 5 mM (3200 ug/ml), cell lines of Table 1): without detectable effect

CN1C(=O)CC(SCCC(CCCCC(=O)O)SC2CC(=O)N(C)C2=O)C1=O (stereo not drawn) [bis methyl sucimimido lipoate, 6,8-Bis-[S-(N-methylsuccinimido)]mercaptooctanoic acid]
cells killed by treatment [2]: +
cells killed by treatment [3]: +
cells killed by treatment [4]: +
cells killed by treatment [5]: +
cells killed by treatment [6]: +
cells killed by treatment [7]: +
cells killed by treatment [8]: +
cells killed by treatment [9]: +
cells killed by treatment [10]: +

NC(=O)CSCCC(CCCCC(=O)O)SCC(N)=O (centres unmarked) [bis carbamoyl lipoate, 6,8-Biscarbamoylmethylmercaptooctanoic acid]
cells killed by treatment [2]: +

CC(=O)SCCC(CCCCC(=O)O)SC(C)=O (centres unmarked) [bis-acetyl lipoate, 6,8-bisacetylmercaptooctanoic acid]
cells killed by treatment [2]: +
cells killed by treatment [3]: +
cells killed by treatment [11]: +/−
cells killed by treatment [4]: +
threshold killing concentration [1]: 600 mg/L
response of subcutaneous tumor [12]: palpable softening and apparently partial liquification of the tumor mass followed by a stabilization or a reduction in size
cells killed by treatment [5]: +
speed of cell killing with DCA relative to compound alone [13]: approximately twvice as rapidly
LD50 [14]: ~500 mg/kg
maximum well-tolerated dose [15]: ca. 200 mg/kg
cells killed by treatment [6]: +
cells killed by treatment [7]: +
cells killed by treatment [8]: +
cells killed by treatment [9]: +
cells killed by treatment [10]: +

CC(=O)SCCC(S)CCCCC(=O)O (centres unmarked) [monoacetyl lipoate, 8-acetylmercapto-6-mercaptooctanoic acid]
cells killed by treatment [2]: +
cells killed by treatment [3]: +
cells killed by treatment [11]: +
cells killed by treatment [4]: +
threshold killing concentration [1]: 100 mg/L
cells killed by treatment [5]: +
speed of cell killing with DCA relative to compound alone [13]: approximately twvice as rapidly
cells killed by treatment [6]: +
cells killed by treatment [7]: +
cells killed by treatment [8]: +
cells killed by treatment [9]: +
cells killed by treatment [10]: +
